{"source": "ChEMBL document CHEMBL1221220", "about": "“Transport and signaling via the amino acid binding site of the yeast Gap1 amino acid transceptor” (Nat Chem Biol, 2009)", "key": {"[1]": {"test_system": "General amino-acid permease GAP1 (Saccharomyces cerevisiae), P19145 [V389C]", "sequence (P19145 whole entry V389C)": "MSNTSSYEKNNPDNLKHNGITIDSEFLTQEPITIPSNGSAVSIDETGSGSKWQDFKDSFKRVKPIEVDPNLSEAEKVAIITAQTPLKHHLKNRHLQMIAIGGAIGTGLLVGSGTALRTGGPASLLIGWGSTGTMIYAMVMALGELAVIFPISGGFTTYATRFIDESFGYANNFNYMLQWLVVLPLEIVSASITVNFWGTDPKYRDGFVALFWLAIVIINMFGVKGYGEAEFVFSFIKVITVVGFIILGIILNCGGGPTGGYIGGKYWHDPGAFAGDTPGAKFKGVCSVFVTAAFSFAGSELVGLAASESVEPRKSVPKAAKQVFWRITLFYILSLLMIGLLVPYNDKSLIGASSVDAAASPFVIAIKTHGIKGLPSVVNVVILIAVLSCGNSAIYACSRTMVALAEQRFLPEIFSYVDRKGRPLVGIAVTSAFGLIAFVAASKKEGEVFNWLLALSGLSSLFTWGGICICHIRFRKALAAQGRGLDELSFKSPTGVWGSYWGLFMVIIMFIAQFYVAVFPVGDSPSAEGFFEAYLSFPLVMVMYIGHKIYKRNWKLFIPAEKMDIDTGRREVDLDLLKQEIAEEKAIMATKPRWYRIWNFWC", "assay": "Induction of yeast Gap1 V389C mutant-mediated trehalose activation at 2 mM in presence of 10 mM MTSEA treated before compound addition"}, "[2]": {"test_system": "T1, General amino-acid permease GAP1 (Saccharomyces cerevisiae), P19145 [A393C]", "T1 sequence (whole entry)": "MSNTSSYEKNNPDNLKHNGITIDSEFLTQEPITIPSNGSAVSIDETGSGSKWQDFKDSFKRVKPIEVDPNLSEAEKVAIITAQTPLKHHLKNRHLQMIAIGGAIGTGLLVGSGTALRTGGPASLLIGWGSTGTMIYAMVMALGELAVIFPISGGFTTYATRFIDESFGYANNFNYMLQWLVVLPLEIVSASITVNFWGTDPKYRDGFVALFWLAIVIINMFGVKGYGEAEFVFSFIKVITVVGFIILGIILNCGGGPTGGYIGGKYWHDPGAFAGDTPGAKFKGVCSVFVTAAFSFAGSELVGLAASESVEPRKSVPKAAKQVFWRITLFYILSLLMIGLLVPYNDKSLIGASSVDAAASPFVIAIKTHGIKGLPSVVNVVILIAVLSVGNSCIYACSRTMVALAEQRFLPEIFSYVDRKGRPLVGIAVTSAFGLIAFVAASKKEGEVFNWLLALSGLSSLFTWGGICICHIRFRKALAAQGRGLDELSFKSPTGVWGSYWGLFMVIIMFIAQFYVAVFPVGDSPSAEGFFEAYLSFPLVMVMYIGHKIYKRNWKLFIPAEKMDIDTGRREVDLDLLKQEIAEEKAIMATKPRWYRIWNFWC", "assay": "Induction of yeast Gap1 A393C mutant-mediated […] activation at 2 mM in presence of 10 mM MTSEA treated before compound addition"}, "[3]": {"test_system": "T2, General amino-acid permease GAP1 (Saccharomyces cerevisiae), P19145 [L387C]", "T2 sequence (whole entry)": "T1 sequence (whole entry) with L387C, C393A", "assay": "Induction of yeast Gap1 L387C mutant-mediated trehalose activation at 10 mM"}, "[4]": {"test_system": "T1, General amino-acid permease GAP1 (Saccharomyces cerevisiae), P19145 [A393C]", "assay": "Induction of yeast Gap1 A393C mutant-mediated amino acid uptake at 2 mM in presence of 10 mM MTSEA treated before compound addition"}, "Saccharomyces cerevisiae": {"test_system": "Saccharomyces cerevisiae", "assay": "Induction of yeast Gap1 L404 mutant-mediated amino acid uptake at 2 mM in presence of 10 mM MTSEA treated before compound addition"}, "[5]": {"test_system": "General amino-acid permease GAP1 (Saccharomyces cerevisiae), P19145 [S392C]", "sequence (P19145 whole entry S392C)": "as the sequence (P19145 whole entry V389C) above, with C389V, S392C counted along it", "assay": "Inhibition of yeast Gap1 S392C mutant-mediated amino acid uptake at 10 mM"}, "[6]": {"test_system": "General amino-acid permease GAP1 (Saccharomyces cerevisiae), P19145 [S388C]", "sequence (P19145 whole entry S388C)": "as the sequence (P19145 whole entry V389C) above, with S388C, C389V counted along it", "assay": "Induction of yeast Gap1 S388C mutant-mediated trehalose activation at 2 mM in presence of 10 mM MTSEA treated before compound addition"}, "[7]": {"test_system": "T3, General amino-acid permease GAP1 (Saccharomyces cerevisiae), P19145 [T400C]", "T3 sequence (whole entry)": "T1 sequence (whole entry) with C393A, T400C", "assay": "Induction of yeast Gap1 T400C mutant-mediated trehalose activation at 10 mM"}, "[8]": {"test_system": "T4, General amino-acid permease GAP1 (Saccharomyces cerevisiae), P19145 [A385C]", "T4 sequence (whole entry)": "T1 sequence (whole entry) with A385C, C393A", "assay": "Induction of yeast Gap1 A385C mutant-mediated trehalose activation at 10 mM"}}, "note": "Numbering of substitutions follows the chain as printed. Activity calls are given as the source filed them. The calls are words filed in the database; no cut-off is given here.", "data": [{"smiles": "NC(=O)NCCC[C@H](N)C(=O)O", "values": [{"measurement": "inhibition", "setting": "[1]", "value": "inactive"}, {"measurement": "inhibition", "setting": "[2]", "value": "Active"}, {"measurement": "Activity", "setting": "[3]", "value": "inactive"}, {"measurement": "Activity", "setting": "[4]", "value": "Active"}, {"measurement": "Activity", "setting": "Saccharomyces cerevisiae", "value": "Active"}, {"measurement": "inhibition", "setting": "[5]", "value": "Active"}, {"measurement": "inhibition", "setting": "[6]", "value": "inactive"}, {"measurement": "Activity", "setting": "[7]", "value": "inactive"}, {"measurement": "Activity", "setting": "[8]", "value": "inactive"}]}]}
